# How the values were obtained:
# TREM-1 [1] = target: T1, TREM-1 (Homo sapiens, UniProt Q9NP99); assay: TREM-1 reporter cell line blocking study (GFP expression by flow cytometry); assay type: cell-based; parameters: expressed in transfected cells; host or cells: TREM-1 reporter cell line (GFP read-out); details: for binding and activation of TREM-1 receptor on reporter cells (GFP expression): TREM-1-positive reporter cells, flow cytometry; for inhibitory effect on agonist-activated TREM-1-specific cells: preincubated with compound 4 hrs, then agonist antibody AF1278 for 24 hrs
# T1 sequence (Q9NP99 21-234): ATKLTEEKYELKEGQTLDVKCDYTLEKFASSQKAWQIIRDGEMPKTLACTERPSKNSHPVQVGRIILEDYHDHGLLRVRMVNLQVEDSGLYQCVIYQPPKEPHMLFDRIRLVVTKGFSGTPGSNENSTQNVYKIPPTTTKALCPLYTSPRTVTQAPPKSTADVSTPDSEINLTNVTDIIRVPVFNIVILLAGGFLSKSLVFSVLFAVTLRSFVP
# Protocol: FIG. 2A is a diagram showing that the engagement of human TREM-1 receptor activates a reporter cell line. […] FIG. 2C is a line graph of the flow cytometry data of FIG. 2B.
# (§1) For blocking studies, TREM-1-positive cells were preincubated with each tested compounds for 4 hrs followed by stimulation with agonist antibody AF1278 for an additional 24 hrs (FIGS. 2A-2B).
# neutrophils = assay: Assessment of cytotoxicity: number of neutrophils in TREM-1 agonist Ab-stimulated PBMCs; details: human PBMCs, compound at 50 μM 2 hrs pretreatment, TREM-1 agonist Ab 24 hrs
# Protocol: Peripheral blood mononuclear cells (PBMCs) were isolated from healthy volunteers and were stimulated with TREM-1 agonist Ab for 24 hrs, at concentration of 4 μg/ml (red) or pretreated with indicated compounds (at 50 μM) for 2 hrs and stimulated with agonist AB at concentration of 4 pg/mlfor 24 hrs (blue)
# reporter cells = assay: Cytotoxicity on TREM-1 reporter cells; assay type: cell-based; details: compared to Compound 118818
# Protocol: as §1
# [2] = tested on: human hepatocellular carcinoma cells (HepG2); assay: Cell proliferation, Cell Counting Kit-8 (CCK-8); assay type: cell-based; details: HepG2, 72 hrs treatment, n=6, read-out: IC50 to inhibit cell proliferation
# Protocol: Cell proliferation was measured using Cell Counting Kit-8 (CCK-8, GLPBIO, Montclair, CA. Catalog No. GK10001) according to the manufacturer's instructions. HepG2 cells were seeded in a 96-well plate at 3×10^3 cells/well and incubated at 37° C. in complete medium for 24 hrs before being treated with the indicated concentrations of VIDT for 72 hrs. After treatment, cells were incubated with 10 μl CCK8 at 37° C. for 2 hrs. Absorbance at 450 nm was determined using a microplate reader. The IC50 value was calculated on the nonlinear regression fit method by the GraphPad Prism software.
# B16F10 cells [3] = assay: Cell cycle assay via propidium iodide; assay type: cell-based, murine; details: B16F10 cells with or without treatment
# Protocol: (§2) B16F10 cells were cultured in 6 well plates incubated with either vehicle alone or vehicle with VJDT at 50 μM and streaks were made using a tip when cells were at 80% confluency. Streaks were photographed at 0 hrs or 24 hrs at 100×. B16F10 cells were treated with VJDT at 50 μM concentration followed by 10 μM CFSE labeling according to manufacturer's protocol. After 48 hrs cells were analyzed by flow cytometry for CFSE intensity that will be inversely proportional to cell proliferation. Further, cell cycle assay via propidium iodide on B16F10 cells with or without VIDT treatment was performed for investigating the anti-proliferative effect of VJDT in tumor cells
# B16F10 cells [4] = assay: CFSE cell proliferation assay; assay type: cell-based, murine; details: 50 μM, 48 hrs; listed as VIDT
# Protocol: as §2
# [5] = tested on: B16F10 murine melanoma cell; assay: Wound healing assay (cell migration); assay type: cell-based; details: 50 μM, 24 hrs
# Protocol: as §2
# [6] = tested on: Wild-type mice (Trem1+/+) with CCl4 injury; assay: CCl4 liver injury, inflammatory cell infiltration at early stages of liver fibrosis; assay type: in vivo; details: 25 mg/kg oral
# Protocol: Wild-type mice (Trem1^+/+) were orally administered VJDT (25 mg/kg) 5 consecutive days prior to injury with CCl4 (2 ml/kg, diluted 1:4 in corn oil) (24 hrs) or one dosage of control corn oil (Sigma-Aldrich, St. Louis, MO, USA). Liver cells were isolated 24 hrs after CCl4 injury, perfused with calcium and magnesium-free 40° C. prewarmed HBSS solution (Corning Life Sciences, Corning, NY, USA) and digested with collagenase type I. The cell suspension was filtered through a 70 μm cell strainer and then centrifuged at 50 g for 5 min at 4° C. to eliminate hepatocytes. Cells remaining in the supernatant were layered on HISTOPAQUE®-1083 and centrifuged at 1000 g for 15 min at 4° C. without a break. The non-parenchymal cell fraction was washed once with PBS at 300 g for 10 min at 4° C., followed by flow cytometry.
# Nonparenchymal cells isolated from Trem1^+/+ livers with CCl4 injury receiving VJDT treatment were analyzed by flow cytometry to evaluate the infiltration of myeloid cells. Liver-associated cells were classified into 3 populations: F4/80^+CD11b^− resident Kupffer cells, F4/80^+CD11b^+Ly6C^hiLy6G^lo monocyte-derived macrophages and F4/80^+CD11b^+Ly6C^loLy6G^hi inflammatory neutrophils.
# TREM-1 [7] = target: T1, TREM-1; assay: TREM-1-mediated proinflammatory cytokine production by activated human neutrophils (flow cytometry); assay type: cell-based; parameters: endogenous in cells; host or cells: PBMCs from healthy human volunteers, gated on CD15/CD16 neutrophils; details: IL-8, IL-6, IL-12 intracellular staining, vs MH and NCI 118818
# Protocol: Quantification (percentage) of cytokine-positive neutrophils from untreated, Morin Hydrate (MH)-treated, 118818-treated, and VJDT 8293-treated compounds (from triplicates) was performed. Cells isolated from the same healthy volunteer have been used for indicated experiments.
# PBMCs were stained cell surface markers CD15 and CD16. In addition, intracellular staining for proinflammatory cytokines, such as IL-8, IL-6 and IL-12, was performed. PBMCs were gated on CD15, CD16 markers to identify the population of neutrophils.
smiles,measurement,setting,value
"N#CC1=CC2CN(Cc3ccccc3)C1C1C(=O)N(c3ccccc3)C(=O)C21 (stereo not shown) [Compound 118818, 9-Benzyl-1,3-dioxo-2-phenyl-2,3,3a,4,7,7a-hexahydro-1H-4,7-(epiminomethano) isoindole-5-carbonitrile]",binding and activation of TREM-1 receptor on reporter cells (GFP expression),TREM-1 [1],significant enhancement of GFP expression
same,number of neutrophils (indicating level of cytotoxicity),neutrophils,"19,5%"
Cc1ccc(NC(=O)Nc2nc3ccccc3s2)cc1NC(=O)Nc1nc2ccccc2s1 [Compound 319990],binding and activation of TREM-1 receptor on reporter cells (GFP expression),TREM-1 [1],significant enhancement of GFP expression
same,cytotoxicity effect on reporter cells,reporter cells,higher cytotoxicity effect
"O=c1c(O)c(-c2ccc(O)cc2O)oc2cc(O)cc(O)c12 [Morin Hydrate, 2′,3,4′,5,7-pentahydroxyflavone]",number of neutrophils (indicating level of cytotoxicity),neutrophils,24.3%
"N#CC1=CC2C(=O)N(Cc3ccccc3)C1C1C(=O)N(c3ccccc3)C(=O)C21 [VJDT 8293, (3aR,7aR)-9-benzyl-1,3,8-trioxo-2-phenyl-2,3,3a,4,7,7a-hexahydro-1H-4,7-(epiminomethano) isoindole-5-carbonitrile]",IC50,[2],14.7 µM
same,cell cycle arrest,B16F10 cells [3],significant cell cycle arrest in the S and G2 phases
same,cell proliferation (CFSE intensity),B16F10 cells [4],significantly inhibites
same,cell migration in wound healing assay,[5],significantly inhibits
same,cell migration in wound healing assay,[5]; listed as VIDT,significantly inhibited
same,infiltration of monocyte-derived macrophages in liver,"[6]; 5 consecutive days prior to CCl4 (2 ml/kg), 24 hrs after injury, p<0.001",3-6%
same,infiltration of inflammatory neutrophils in liver,"[6]; 5 consecutive days prior to CCl4 (2 ml/kg), 24 hrs after injury, p<0.01",8-10%
same,protective effect to liver injury,[6]; CCl4 injury,strong protective effect
same,cytokine secretion in neutrophils,[6]; compared to control group (DMSO vehicle),significantly decreased cytokine secretion
same,inhibitory effect on TREM-1 mediated proinflammatory cytokine production,TREM-1 [7],much stronger inhibitory effect
Cc1c(O)ccc2c(O)c(NC(=O)c3ccc4c(c3)CCC(C)(C)O4)c(=O)oc12 [compound 5157],binding and activation of TREM-1 receptor on reporter cells (GFP expression),TREM-1 [1],significant enhancement of GFP expression
same,inhibitory effect on agonist-activated TREM-1-specific cells,TREM-1 [1],did not provide any inhibitory effect
O=C(O)Cc1ccc(N=Nc2c(O)c(C(=O)O)cc3ccccc23)cc1 [compound 156563],binding and activation of TREM-1 receptor on reporter cells (GFP expression),TREM-1 [1],significant enhancement of GFP expression
same,inhibitory effect on agonist-activated TREM-1-specific cells,TREM-1 [1],did not provide any inhibitory effect

# Source: patent US20250270205A1, “COMPOSITIONS AND METHODS FOR INHIBITING TREM-1” (AUGUSTA UNIVERSITY RESEARCH INSTITUTE, INC., priority 2020, published 2025)
